Assays:
[1] = tested on: NHDF cells (Normal Human Dermal Fibroblasts); assay: Hyaluronic acid production by NHDF cells (ELISA on supernatant); format: cell-based; conditions: 72 hours, glucosamine 0.1 to 100 μg/ml, hyaluronic acid 40 to 6000 ng/ml, source of collagen and hyaluronic acid 4 to 4000 ng/ml, FIG. 2
Method: Normal human dermal fibroblasts (NHDF) were cultured at 37° C. under 5% CO2 in a DMEM culture medium supplemented with glutamine (2 mM); calf serum (1%), penicillin (50 U/ml) and streptomycin ([…]). Glucosamine (0.1 to 100 μg/ml) and/or hyaluronic acid (from 40 to 6000 ng/ml) and/or a source of collagen and hyaluronic acid (in a ratio of between 0.07% and 15%) at concentrations ranging from 4 to 4000 ng/ml were then added to the cultivation medium alone or in combination. After 72 hours of cultivation under these conditions, the supernatant was collected to quantify the hyaluronic acid produced by the cells using an ELISA Duoset Hyaluronan kit marketed by the company R & D System (DY3614 reference).

[2] = tested on: NHEK cells (Normal Human Epidermal Keratinocytes); assay: Hyaluronic acid production by NHEK cells (ELISA on supernatant); format: cell-based; conditions: 72 hours of cultivation, hyaluronic acid 40 to 6000 ng/ml, glucosamine sulfate 0.25 to 25 μg/ml, FIG. 1
Method: Normal human epidermal keratinocytes were cultured at 37° C. under 5% CO2 in a medium keratinocyte-SFM culture, supplemented with epidermal growth factor (EGF; 0.25 ng/ml), a pituitary extract (25 μg/ml) and an antibiotic (gentamicin 25 μg/ml) in 96-well plates for 24 h without stimulation. Glucosamine and/or hyaluronic acid are then added to the cultivation medium alone or in combination at concentrations of 40 to 6000 ng/ml hyaluronic acid and 0.25 to 25 μg/ml to glucosamine sulfate. After 72 hours of cultivation under these conditions, the supernatant was collected to quantify the hyaluronic acid produced by the cells using an ELISA Duoset Hyaluronan kit marketed by the company R & D System (DY3614 reference).

Row | Compound | hyaluronic acid production by human fibroblasts in vitro [1] | hyaluronic acid production by human keratinocytes in vitro [2]
1 | N[C@H]1C(O)O[C@H](CO)[C@@H](O)[C@@H]1O.O=S(=O)(O)O (stereo partly shown) [glucosamine sulfate] | lack of stimulation | induction of hyaluronic acid production
2 | hyaluronic acid | did not stimulate the synthesis of hyaluronic acid | does not stimulate the synthesis of hyaluronic acid

Source: patent US11547652B2, “Combination products and cosmetic compositions for controlling skin disorders and skin aging that affect keratinocytes and/or fibroblasts and the dermis” (NUTRICOS Technologies, priority 2014, dated 2023)
